Converted amounts (≈) assume the structure as drawn.
Columns and labels:
human NK1 receptors = target: T1, human NK1 receptors (Homo sapiens, UniProt P25103); assay: NK1 receptor binding, [3H]substance P displacement; settings: human NK1 receptor in CHO cells, [3H]substance P 0.6 nM; read-out: affinity to the NK-1 receptor, given as pKi (converted)
T1 construct: expressed in transfected cells; host or cells: CHO cells infected using the Semliki virus expression system; membrane suspension used
Procedure: The compounds were investigated in accordance with the tests given hereinafter. The affinity of test compounds for the NK1 receptor was evaluated at human NK1 receptors in CHO cells infected with the human NK1 receptor (using the Semliki virus expression system) and radiolabelled with [^3H]substance P (final concentration 0.6 nM). Binding assays were performed in HEPES buffer (50 mM, pH 7.4) containing BSA (0.04%) leupeptin (8 μg/ml), MnCl2 (3 mM) and phosphoramidon (2 μM). Binding assays consisted of 250 μl of membrane suspension (1.25×10^5 cells/assay tube), […] of buffer of displacing agent and 125 μl of [^3H]substance P. Displacement curves were determined with at least seven concentrations of the compound. The assay tubes were incubated for 60 min at room temperature after which time the tube contents were rapidly filtered under vacuum through GF/C filters presoaked for 60 min with PEI (0.3%) with 2×2 ml washes of HEPES buffer (50 mM, pH 7.4). The radioactivity retained on the filters was measured by scintillation counting. All assays were performed in triplicate in at least 2 separate experiments.
The affinity to the NK-1 receptor, given as pKi is described in the table below: […]

[1] = Metabolic stability in vitro in microsomes; assay type: in vitro ADME; settings: in comparison with 2-(3,5-bis-trifluoromethyl-phenyl)-N-methyl-N-[6-(4-methyl-piperazin-1-yl)-4-o-tolyl-pyridin-3-yl]-isobutyramide
Equilibrium solubility = assay type: physicochemical; settings: for solubility at 24 h: 21 °C, aqueous buffer, thermodynamic from solid
Procedure: Method Description Equilibrium Solubility
[…] A known amount of drug, generally 1–2 mg, was added to 250 μl of buffer (glass tubes), and the resulting suspension was stirred for 2 h (21° C.), after 5 minutes of sonification. The pH of the solution was checked and corrected if necessary (in case of pH correction, the solution was once more shaken and equilibrated), and after 24 h the suspension was filtered through a 0.65-μm filter. The filtered solution was then assayed by HPLC to determine the drug concentration. In cases where the drug had completely dissolved in the buffer, the value for equilibrium solubility was assumed to be higher than the value determined by HPLC and was reported as such. Stock solutions (˜1 mg/ml) in DMSO were used in the preparation of a calibration curve in the related buffer using HPLC analytics.

[2] = PAMPA PSR4p permeability assay; assay type: in vitro ADME; settings: for Acceptor (sample distribution) / Donor (sample distribution) / Membrane (sample distribution) / PE (permeation constant) / PE class: pH 6.5, DMSO stock solution
Procedure: The permeability has been searched by the PAMPA PSR4p assay, which is based on 96 well microplates. The permeability is measured using a “sandwich” construction. A filterplate is coated with phospholipids (membrane) and placed into a donor plate containing a drug/buffer solution. Finally the filterplate is filled with buffer solution (acceptor). The donor concentration is measured at t-start (reference) and compared with the donor and acceptor concentration after a certain time t-end.
The following setup is used for the PAMPA PSR4p assay: • Donor: 0.05 M MOPSO buffer at ph 6.5+0.5% (w/v) Glyco cholic acid • Membrane: 10% (w/v) Egg lecithin+0.5% (w/v) cholesterol in dodecane • Acceptor: 0.05 MOPSO buffer at pH 6.5
The liquid handling is done with a TECAN RSP150 pipetting robot. The drug analysis is based on UV spectroscopy. All samples are transferred into 96 well UV plates. A SpectralMax 190 UV plate reader is used to collect the UV spectras.
The pipetting steps can be divided into four parts: 1. Dilution of stock solutions and filtration, 2. Preparation of reference and PAMPA PSR4p sandwich, 3. Transfer of acceptor solutions into UV plate, 4. Transfer of donor solutions into UV plate. The PAMPA PSR4p assay contains information about the sample precipitation in the donor buffer UV spectras of the sample, read at the start of the assay (t-start: reference) and at the end (t-end: donor, acceptor) allow the determination of a sample distribution in donor, membrane and acceptor. Because of the known permeation time (t-end, t-start) a permeation constant can be retrieved.

[3] = buffer 0.05 M Phosphate, pH 6.5 (EP 1 035 115) / pH 6.7 (Compound I-2)

T1 sequence (P25103 whole entry): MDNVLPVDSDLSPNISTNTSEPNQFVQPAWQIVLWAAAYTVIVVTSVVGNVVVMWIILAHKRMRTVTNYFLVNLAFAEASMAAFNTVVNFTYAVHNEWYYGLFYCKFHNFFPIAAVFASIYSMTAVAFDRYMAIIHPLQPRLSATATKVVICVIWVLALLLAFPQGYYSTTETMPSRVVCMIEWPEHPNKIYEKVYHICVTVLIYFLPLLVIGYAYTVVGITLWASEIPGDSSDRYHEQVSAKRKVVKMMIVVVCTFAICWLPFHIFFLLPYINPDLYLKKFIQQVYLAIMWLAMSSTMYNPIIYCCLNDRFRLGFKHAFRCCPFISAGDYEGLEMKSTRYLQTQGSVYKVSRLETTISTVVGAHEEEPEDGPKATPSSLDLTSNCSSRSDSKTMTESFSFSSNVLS

Row | Ki (human NK1 receptors) [pM] | metabolic stability in vitro in microsomes [1] | solubility, fold higher than the compared compound disclosed in EP 1035 115 (Equilibrium solubility) [fold] | solubility at 24 h (Equilibrium solubility; [3]) [µg/mL] | solubility at 24 h (Equilibrium solubility; buffer 0.15 M Citrate, pH 4.1) [µg/mL] | permeation speed compared with the corresponding compound of EP 1 035 115 [2] | Acceptor (sample distribution) [2] [%] | Donor (sample distribution) [2] [%] | Membrane (sample distribution) [2] [%] | PE (permeation constant) [2] [cm/s × 10^−6] | PE class [2] | SMILES
1 | 1000 | higher metabolic stability | – | – | – | – | – | – | – | – | – | Cc1ccccc1-c1cc(N2CC[N+](C)([O-])CC2)ncc1N(C)C(=O)C(C)(C)c1cc(C(F)(F)F)cc(C(F)(F)F)c1 [Compound I-1, 2-(3,5-Bis-trifluoromethyl-phenyl)-N-methyl-N-[6-(4-methyl-4-oxy-piperazin-1-yl)-4-o-tolyl-pyridin-3-yl]-isobutyramide]
2 | 794 | – | 8 | 8 (≈ 13.5 µM) | 200 (≈ 336 µM) | three times higher | 3 | 26 | 72 | 1.81 | high | CN1CCN(c2cc(-c3ccccc3CO)c(N(C)C(=O)C(C)(C)c3cc(C(F)(F)F)cc(C(F)(F)F)c3)cn2)CC1 [Compound I-2, 2-(3,5-Bis-trifluoromethyl-phenyl)-N-[4-(2-hydroxymethyl-phenyl)-6-(4-methyl-piperazin-1-yl)-pyridin-3-yl]-N-methyl-isobutyramide]
3 | – | – | – | 1 (≈ 1.73 µM) | 26 (≈ 44.9 µM) | – | 2 | 50 | 49 | 0.56 | medium | Cc1ccccc1-c1cc(N2CCN(C)CC2)ncc1N(C)C(=O)C(C)(C)c1cc(C(F)(F)F)cc(C(F)(F)F)c1 [EP 1 035 115, 2-(3,5-bis-trifluoromethyl-phenyl)-N-methyl-N-[6-(4-methyl-piperazin-1-yl)-4-o-tolyl-pyridin-3-yl]-isobutyramide, reference compound]
